The source of these data is publication PMC11261779, “Structural studies of WDR5 in complex with MBD3C WIN motif reveal a unique binding mode” (The Journal of Biological Chemistry, 2024).

The subject of experiment [1] is WDR5. Conditions: cited from earlier work. From the text: (§1) WDR5, a well-established core scaffolding protein found in histone methyltransferase complexes MLL1-4 and SET1A/B ([1], [2]), was initially characterized as an epigenetic histone “writer” to recognize histone H3 lysine 4 (H3K4) and is essential for H3K4 di- and tri-methylation (H3K4me2 and H3K4me3) to activate gene transcription ([1], [3], [4], [5], [6]). Moreover, the interaction between WDR5 and the H3 tail could be regulated by the methylation of H3 arginine 2 (H3R2) ([7], [8]). It is also present in the nonspecific lethal (NSL) complex of histone acetyltransferase, where it is responsible ...

The test system of experiment [2] is patient-derived mouse models. Conditions: cited from earlier work.
Text: as §1

The target in experiment [3] is T1, WDR5 (Mus musculus, UniProt P61965).
T1 construct: to titrate the truncated WDR5 construct (residues 24–334); GST (N, cleaved yes); made in house; host or cells: Escherichia coli BL21 (DE3)
The experiment can be described thus: ITC of MBD3C peptides titrated into wild-type WDR5 (residues 24–334). Conditions: MicroCal PEAQ-ITC, 20 °C, 20 mM Tris-HCl, 200 mM NaCl, pH 7.5, WDR5 WT 44.5 μM, peptide 0.5–1.0 mM, single binding site model, triplicate, N.D. = not detectable binding. From the text:
To validate their findings and determine the dissociation constant (Kd) between WDR5 and MBD3C40-51 more accurately, we performed ITC experiments using a synthetic MBD3C peptide spanning 40 to 51 to titrate the truncated WDR5 construct (residues 24–334).
The DNA fragment encoding the mouse WDR5 seven tandem WD-40 repeats (residues 24–334) was amplified via PCR from the human brain and bone marrow cDNA library and cloned into the pGEX-4T1 vector modified with an N-terminal GST tag and a TEV cleavage site (ENLYFQ/GSHM) (where ‘/’ indicates the cleavage site). All WDR5 mutants were generated using a MutanBEST kit and subsequently confirmed through DNA sequencing. The proteins were expressed in Escherichia coli BL21 (DE3) cells (Novagen) that were cultured in Luria–Bertani medium at 37 °C. The recombinant proteins were induced by 0.2 mM isopropyl β-D-1-thiogalactopyranoside (IPTG) upon reaching an optical density at 600 nm (OD600 nm) 0.8, then transferred to 16 °C and incubated for 18 h. Cells were harvested by centrifugation and resuspended in Buffer A (20 mM Tris-HCl, 500 mM NaCl, pH 8.0), supplemented with DNAaseI (10U) and protein protease inhibitor (Roche, 1 tablet dissolved in 1 ml sterile water), and then lysed by a high-pressure cell homogenizer. The cell debris was removed by centrifugation, and the supernatant was subjected to a 6-h incubation at 4 °C with glutathione Sepharose resins (GE Healthcare) The resins bound by GST-tagged proteins were resuspended in 20 ml Buffer A. Then, the GST tag was removed through digestion with ∼1 mg TEV protease (purified in-house) at 4 °C overnight. […]
(§2) ITC assays were performed on a Microcal PEAQ-ITC instrument (Malvern Panalytical) at 20 °C. Proteins were quantified by absorbance at 280 nm and diluted to 44.5 μM with Buffer D. The peptides were adjusted to 0.5 to 1.0 mM with the same buffer. […]

A further experiment concerns the target T2, WDR5^D107R (Mus musculus, UniProt P61965, D107R).
T2 construct: the mouse WDR5 seven tandem WD-40 repeats (residues 24–334); GST (N, cleaved yes); made in house; host or cells: Escherichia coli BL21 (DE3)
The experiment in a line: ITC of MBD3C peptide titrated into WDR5 D107R mutant. Conditions: 20 °C, 200 mM NaCl, pH 7.5, WDR5 D107R, N.D. = not detectable binding.
Text: To validate the importance of the aforementioned residues in the interactions between MBD3C and WDR5, we conducted mutations on Arg43, Arg45, and Phe47 residues within MBD3C and the corresponding residues within WDR5. […] In addition, MBD3C carrying R43K mutation weakens the interaction with WDR5 by ∼9.1-fold (Figs. 2D, S2, and Table 2). […] The Arg-Asp specific interaction was also observed in a previously determined WDR5-KANSL1 complex, thereby contributing to the high binding affinity of KANSL1 for WDR5 ([9]). […] In comparison to the wild-type MBD3C, the dissociation constants were approximately 4-fold and 6.8-fold higher when Phe47 was mutated to alanine and histidine (Figs. 2D, S2, and Table 2), respectively.
The DNA fragment encoding the mouse WDR5 seven tandem WD-40 repeats (residues 24–334) was amplified via PCR from the human brain and bone marrow cDNA library and cloned into the pGEX-4T1 vector modified with an N-terminal GST tag and a TEV cleavage site (ENLYFQ/GSHM) (where ‘/’ indicates the cleavage site). All WDR5 mutants were generated using a MutanBEST kit and subsequently confirmed through DNA sequencing. […]
as §2

No end group written: not given here.

For `Cc1ncsc1-c1ccc([C@H](C)NC(=O)[C@@H]2C[C@@H](O)CN2C(=O)[C@@H](NC(=O)CNC(=O)c2ccc(F)c(-c3ccc(N4C[C@@H](C)N(C)[C@@H](C)C4)c(NC(=O)c4c[nH]c(=O)cc4C(F)(F)F)c3)c2)C(C)(C)C)cc1` [MS67], the “reduction of WDR5 levels in cells” value in the experiment on WDR5 [1] is listed as “effectively reduced WDR5 levels”. For the same molecule, the tumor growth entry in experiment [2] is “suppressed tumor growth”.
As for “GAAACRVFSPQG [MBD3C^R43A, MBD3C 40–51 peptide with R43A mutation]”, the Kd result on WDR5 [3] is listed as “no binding was observed”.
For “GAADCRVFSPQG [MBD3C^R43D, MBD3C 40–51 peptide with R43D mutation]”, the Kd entry on WDR5 [3] is “no binding was observed”.
On to “GAAECRVFSPQG [MBD3C^R43E, MBD3C 40–51 peptide with R43E mutation]”, for which the Kd entry on WDR5 [3] is given as “no binding was observed”.
Regarding GAARCRVFSPQG [MBD3C], at WDR5^D107R, the Kd result is on record as “No interaction was observed”.
